Drawing on patent publication US20230243815A1, “AN APPARATUS COMPRISING MICROFLUIDIC PROTEIN-BASED SENSORS AND METHODS OF USING SAME” (UNIVERSITY OF MARYLAND, BALTIMORE COUNTY, priority 2020, published 2023), this text covers Kd for three compounds.

Structures are written as SMILES.

Chain of branched-chain amino acid binding protein (P0AD96 24-367): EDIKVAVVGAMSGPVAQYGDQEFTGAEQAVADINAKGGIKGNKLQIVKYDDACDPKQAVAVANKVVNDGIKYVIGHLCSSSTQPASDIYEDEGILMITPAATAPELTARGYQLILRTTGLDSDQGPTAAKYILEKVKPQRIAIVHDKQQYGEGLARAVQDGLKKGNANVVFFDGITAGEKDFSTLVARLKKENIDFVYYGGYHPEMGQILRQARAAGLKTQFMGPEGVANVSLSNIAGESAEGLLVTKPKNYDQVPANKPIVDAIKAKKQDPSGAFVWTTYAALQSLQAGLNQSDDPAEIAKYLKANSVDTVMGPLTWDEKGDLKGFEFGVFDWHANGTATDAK

The target in the assay is branched-chain amino acid binding protein (Escherichia coli, UniProt P0AD96). Nature of the assay: Binding of amino acids to branched-chain amino acid binding protein biosensor (microfluidic column sensor). The following applies: binding affinity of the analyte to the branched-chain amino acid binding protein biosensor; FIG. 9. An excerpt:
FIG. 9(A) illustrates amino acids that bind at varying affinities to a microfluidic column biosensor, where F/F0 is the fluorescence intensity ratio.
Microfluidic column sensors are also useful when the biosensor detects more than one analyte but with different binding affinities. […] This is shown in FIG. 9, where a mixture of these amino acids can be separately detected over the length of the microfluidic column.
Consider `CC(C)C[C@H](N)C(=O)O` [leucine], for which binding was put at a Kd of 58 µM.

In the case of `CC(C)[C@H](N)C(=O)O` [valine], the Kd is 135 µM.

Turning to `CC[C@H](C)[C@H](N)C(=O)O` [isoleucine], the affinity, expressed as Kd, was 68 µM.
